Experimental findings from ChEMBL document CHEMBL1201862, “PubChem BioAssay data set” (2004) are described below.

SMILES strings stand for the structures.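 The compound was tested at five concentrations on cells cultured in 96-well plates, with a 48-hour exposure period. Here, GI50 denotes the concentration required for 50% inhibition of growth.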 Active and inactive are the calls of the source. No stated cut-off is given here; in the data, active = GI50 up to about 1.1 µM and inactive = higher. Where only a bound is given, the exact number is not on record here.

Some test systems named below: CCRF-CEM; HL-60; NCI-H460; UACC-62; COLO 205; RPMI-8226; ACHN; SR; MOLT-4; SF-268; IGROV-1; MDA-MB-435; NCI-H23; SK-MEL-5; HCT-116; BT-549; PC-3; K562; M14; HOP-62.
What all share (assay): inhibition of tumour cell growth, NCI panel, 48 h

Regarding `N=C(N)NS(=O)(=O)c1ccc(Nc2c3ccccc3nc3ccc(C(=O)Nc4ccc(S(N)(=O)=O)cc4)cc23)cc1`, the GI50 in the assay with CCRF-CEM, in the assay with HL-60, with NCI-H460, in the assay with UACC-62, in the assay on COLO 205 and in the assay on RPMI-8226 was > 100 µM (inactive) in each case. Moreover, the GI50 in the assay on ACHN, with SR, in the assay with MOLT-4, in the assay with SF-268, in the assay on IGROV-1 and in the assay with MDA-MB-435 was > 100 µM (inactive) in each case. Moreover, the GI50 with NCI-H23, in the assay with SK-MEL-5, in the assay on HCT-116, in the assay on BT-549, in the assay with PC-3 and with K562 was > 100 µM (inactive) in each case. The GI50 with M14 and in the assay with HOP-62 was > 100 µM (inactive) in each case.
`CCOP(=O)(OCC)OC1CC(n2cc(C)c(=O)n(C)c2=O)OC1CO[Si](C)(C)C(C)(C)C` (stereo not given): the GI50 with CCRF-CEM was 61.2 µM (inactive); in the assay on HL-60 it was 18.1 µM (inactive); in the assay on NCI-H460, 58.3 µM (inactive); in the assay on UACC-62, > 100 µM (inactive); with COLO 205, > 100 µM (inactive); in the assay with RPMI-8226 it was 25.2 µM (inactive). The GI50 with ACHN is > 100 µM (inactive); in the assay with SR, 37.7 µM (inactive); in the assay with MOLT-4 it was 37 µM (inactive); in the assay with SF-268, > 100 µM (inactive); in the assay on IGROV-1, > 100 µM (inactive); in the assay on MDA-MB-435, > 100 µM (inactive). For the same molecule, the GI50 in the assay on NCI-H23 was > 100 µM (inactive); in the assay with SK-MEL-5 it was 58.9 µM (inactive); in the assay with HCT-116, 40.8 µM (inactive); in the assay on BT-549, 55.1 µM (inactive); with PC-3, 29.1 µM (inactive); in the assay on K562, 48.4 µM (inactive). Besides, the values for the GI50 with M14 and in the assay with HOP-62 were > 100 µM (inactive) and 79.6 µM (inactive), respectively.
For `Cc1c2c(n(CCc3ccc(Cl)cc3)c1C)NC(c1ccccc1)C(C#N)S2(=O)=O` (stereo not given), the GI50 with CCRF-CEM is 2.08 µM (inactive); in the assay on HL-60, 7 µM (inactive); in the assay with NCI-H460, 44.1 µM (inactive); in the assay with UACC-62, 36.6 µM (inactive); with COLO 205 it was 8.36 µM (inactive); with RPMI-8226, 3.51 µM (inactive). Moreover, the GI50 in the assay with ACHN is > 100 µM (inactive); with SR, 3.22 µM (inactive); with MOLT-4, 3.24 µM (inactive); in the assay with SF-268, 40.2 µM (inactive); with IGROV-1, 17.2 µM (inactive); in the assay on MDA-MB-435, 11.1 µM (inactive). Further, the GI50 in the assay on NCI-H23 is > 47.9 µM (inactive); with SK-MEL-5 it was 3.95 µM (inactive); in the assay on HCT-116, 15.2 µM (inactive); in the assay with BT-549 it was 37 µM (inactive); with PC-3, 19.6 µM (inactive); in the assay with K562 it was 5.14 µM (inactive). For the same molecule, the GI50 with M14 is 27.2 µM (inactive); with HOP-62, > 79.4 µM (inactive).
Consider `CC(C)(C)OC(=O)NC1CC=CCC1NC(=O)OC(C)(C)C` (stereo not given), for which the GI50 with CCRF-CEM, in the assay with HL-60, in the assay on NCI-H460, in the assay with UACC-62, in the assay on COLO 205 and in the assay on RPMI-8226 was > 100 µM (inactive) in each case. Moreover, the GI50 with ACHN, with SR, with MOLT-4, in the assay with SF-268, in the assay on IGROV-1 and in the assay with MDA-MB-435 was > 100 µM (inactive) each time. Besides, the GI50 in the assay on NCI-H23 is > 100 µM (inactive); in the assay on SK-MEL-5, 97.7 µM (inactive); in the assay on HCT-116, > 100 µM (inactive); with BT-549 it was > 100 µM (inactive); in the assay with PC-3 it was > 100 µM (inactive); with K562, 97.9 µM (inactive). In addition, the GI50 with M14 and in the assay with HOP-62 was > 100 µM (inactive) throughout.
Regarding `C=CCN(c1cc(OC)c2[nH]cc(C)c2c1[N+](=O)[O-])S(C)(=O)=O`, the GI50 with CCRF-CEM, with HL-60, with NCI-H460, in the assay on UACC-62, in the assay with COLO 205 and in the assay with RPMI-8226 was > 100 µM (inactive) in each case. Moreover, the GI50 with ACHN, in the assay with SR, in the assay on MOLT-4, in the assay with SF-268, in the assay with IGROV-1 and in the assay with MDA-MB-435 was > 100 µM (inactive) in each case. For the same molecule, the GI50 in the assay on NCI-H23, in the assay on SK-MEL-5, in the assay with HCT-116, in the assay on BT-549, with PC-3 and in the assay on K562 was > 100 µM (inactive) in each case. The GI50 in the assay with M14 and in the assay with HOP-62 was > 100 µM (inactive) each time.
Take `COc1ccccc1C1Nn2c(nc3ccccc3c2=O)N1c1ccc(C)cc1` (stereo not given): the GI50 is 1.82 µM (inactive) in the assay on CCRF-CEM; 10.6 µM (inactive) in the assay on HL-60; 3.37 µM (inactive) with NCI-H460; 9.31 µM (inactive) in the assay on UACC-62; 6.65 µM (inactive) in the assay with COLO 205; 3.72 µM (inactive) in the assay on RPMI-8226. For the same molecule, the GI50 is 4 µM (inactive) in the assay on ACHN; 1.38 µM (inactive) in the assay on SR; 1.47 µM (inactive) in the assay with MOLT-4; 6.85 µM (inactive) in the assay with SF-268; 6.34 µM (inactive) in the assay with IGROV-1; 8.2 µM (inactive) in the assay with MDA-MB-435. Moreover, the GI50 with NCI-H23 was 10.9 µM (inactive); in the assay on SK-MEL-5, 7.45 µM (inactive); with HCT-116, 4.23 µM (inactive); in the assay with BT-549 it was 21.8 µM (inactive); in the assay on PC-3 it was 2.71 µM (inactive); in the assay with K562, 7.83 µM (inactive). Also, the GI50 in the assay on M14 is 10.5 µM (inactive); in the assay with HOP-62, 6.32 µM (inactive).
For the molecule `CO[C@H]1C[C@H](O[C@H]2CC[C@]3(C=O)[C@H]4CC[C@]5(C)[C@@H](C6=CC(=O)OC6)CC[C@]5(O)[C@@H]4CC[C@]3(O)C2)O[C@H](C)[C@H]1O[C@@H]1O[C@H](CO)[C@@H](O)[C@H](O)[C@H]1O`, the GI50 in the assay with CCRF-CEM was > 0.01 µM (active); in the assay on HL-60 it was > 0.01 µM (active); in the assay with NCI-H460, 9.04e-06 µM (active); in the assay on UACC-62 it was 6.17e-05 µM (active); in the assay on COLO 205 it was 0.00011 µM (active); with RPMI-8226, 3.7e-05 µM (active). Further, the GI50 in the assay with ACHN is 9.16e-06 µM (active); with SR, > 0.01 µM (active); in the assay with MOLT-4 it was 5.42e-06 µM (active); with SF-268 it was 1.19e-05 µM (active); in the assay with IGROV-1, > 0.01 µM (active); with MDA-MB-435 it was 4.61e-05 µM (active). Also, the GI50 in the assay with NCI-H23 was 7.87e-06 µM (active); with SK-MEL-5 it was 2.62e-05 µM (active); in the assay with HCT-116, 9.73e-06 µM (active); in the assay with BT-549, 1.22e-05 µM (active); in the assay with PC-3 it was 2.06e-05 µM (active); in the assay with K562 it was > 0.01 µM (active). Moreover, the GI50 in the assay with M14 is 4.73e-05 µM (active); in the assay with HOP-62, 1.26e-05 µM (active).
